{"source": "patent US20170326180A1", "about": "“Demineralized Bone Matrix Material having Allogenic Sphingosine-1-Phosphate” (DePuy Synthes Products, Inc., priority 2016, published 2017)", "origin": "cited, not measured here", "test_system": "mesenchymal stem cells", "details": "solution having 0.1 and 1 uM C1P; reported by Kim"}
{"substance": "ceramide-1-phosphate [C1P]", "values": [{"measurement": "chemotactic activity for mesenchymal stem cells", "result": "chemotactic activity"}]}
